Converted amounts (≈) assume the structure as drawn.
How the values were obtained:
[1] = test system: A. baumannii ATCC 19606; assay type: cell-based, Acinetobacter baumannii; conditions: ATCC 19606, 20 h
Experimental: (§1) MIC values of the peptidomimetics were evaluated by using the modified Hancock lab protocol in non-binding polystyrene microtiter plates. Bacterial suspensions of ~5 × 10^5 CFU/mL in Mueller-Hinton broth (Difco, Sparks, MD, USA) were prepared with Mg^2+ and Ca^2+ concentrations of 4 mg/L each. The compounds were dissolved in H2O and diluted in 0.01% acetic acid, 0.2% BSA (final concentration). Aliquots (11 µL) of test compounds were then transferred to wells containing bacterial suspensions (100 µL). Low-binding sterile tubes and tips (Axygen, Union City, CA, USA) were used for preparation and transfer of the solutions of the compounds. Following incubation for 20 h of the covered plates at 35 °C (±2 °C) with circular shaking at 180 rpm, the MICs were read.

[2] = test system: A. baumannii NMI 3658/17; assay type: cell-based, Acinetobacter baumannii; conditions: NMI 3658/17, 20 h
Experimental: as §1

[3] = test system: P. aeruginosa PAO1; assay type: cell-based, Pseudomonas aeruginosa; conditions: PAO1, 20 h
Experimental: as §1

[4] = test system: P. aeruginosa NMI 7197/19; assay type: cell-based, Pseudomonas aeruginosa; conditions: NMI 7197/19, 20 h
Experimental: as §1

[5] = Estimation of log D values (n-octanol/PBS pH 7.4, LC-MS, log Dmax from LOQ); assay type: physicochemical; conditions: n-octanol/PBS pH 7.4, 25 °C; indicative threshold from LOQ in octanol phase
Experimental: A phosphate buffered saline (PBS) pH 7.4 was prepared and then saturated with n-octanol. Likewise, an n-octanol solution saturated with pH 7.4 PBS buffer was also prepared. Both solutions were shaken for 24 h, and then left for 24 h in a separating funnel to ensure complete separation of the two phases. This provided an aqueous phase (PBS buffer saturated with n-octanol) and an n-octanol phase (saturated with PBS buffer).
Samples for log D determination were prepared as following: All compounds were dissolved in PBS buffer at a concentration 4 mg/mL, which was used as stock solutions. PBS-saturated n-octanol (1.0 mL), n-octanol-saturated PBS (0.76 mL) and sample stock solution (0.24 mL) were placed into a 4-mL clear glass vial and incubated on Biosan Thermo Shaker TS-100 at 1000 rpm and 25 °C. For optimization of the assay, the incubation time was varied from 5 h to 48 h. […] After incubation samples were centrifugated and left for 30 min to ensure complete separation of the phases. The distribution coefficient was determined by quantification of the compounds both in the aqueous and n-octanol phases. Then, 100 µL of each phase were transferred to 1.5 mL champagne glass vial and evaporated using a GeneVac EZ-2 PLUS evaporation instrument. Before LC-MS analysis samples were diluted with 200 µL MeCN–0.1% aqueous formic acid (1:1, v/v).
LC-MS was performed on Acquity UPLC chromatograph coupled with a MICROMASS QUATTRO micro^TM API tandem mass spectrometer. The mass spectrometer was operated in positive electrospray ionisation mode. Parameter settings were as follows: desolvation gas (N2) flow was 600 L/h; desolvation gas temperature was 400 °C; capillary voltage, 3.30 kV; ion source temperature was 120 °C. Initial data acquisition was carried out in full-scan mode to select the most abundant ions of the individual compounds.
Waters Acquity UPLC column BEH C18 (2.1 × 50 mm, 1.7 µm particle size) was applied for analysis. Acetonitrile and 0.1% aqueous formic acid mixtures were used as mobile phase at a flow rate of 0.4 mL/min with the following gradient: 0.0–2.5 min 5–98% MeCN, 2.5–3.5 min 98% MeCN. Injection volume was 2 µL.
Limit of quantitation (LOQ) was determined using S/N ratio for each compound and used for log Dmax calculations according to the following equation:(2) log Dmax = log (theoretical peak area of n-octanol phase at LOQ concentration/peak area of buffer base) Theoretical peak area at LOQ was calculated according to the calibration curve for each compound.

[6] = Antiproliferative activity on HepG2 cell line (MTT assay); assay type: cell-based; conditions: HepG2 cells; at 1280 µg/mL, value in parenthesis; read-out: HepG2 cell viability at highest concentration tested
Experimental: (§2) Effect of compounds on mammalian cell viability was estimated on the HepG2 cell line ATCC HB-8065. In brief, HepG2 cells were seeded into flat-bottomed 96-well plates at a concentration of 5000 cells per well. Subsequently, the cells were incubated for 24 h in a humidified incubator (5% CO2, 37 °C). Then, the medium was removed, and the cells were incubated for 48 h in a humidified incubator (5% CO2, 37 °C) with peptidomimetics in serial dilutions. Then, an 3-(4,5-dimethylthiazol-2-yl)-2,5-diphenyltetrazolium bromide (MTT) assay was performed as previously described. In brief, after incubation with the test compounds, the culture medium was removed, and then fresh medium with 0.2 mg/mL MTT was added into each well of the plate. The cells were then incubated (3 h, 37 °C, 5% CO2), followed by removal of the medium with MTT and addition of 200 μL dimethyl sulfoxide at once to each sample. Absorbance of MTT was measured using the spectrophotometer TECAN Infinite M1000 at 540 nm. The relative viability was calculated by using the formula: ODtreated cells × 100/ODcontrol cells. The IC50 values are calculated by using the program Graph Pad Prism® 5.0. For all compounds, the test range was 10–1280 μg/mL.

[7] = test system: HepG2 cell line ATCC HB-8065; experiment: as above; assay type: cell-based; conditions: inhibition of growth of HepG2 cells, 48 h, MTT; highest concentration tested 1280 µg/mL
Experimental: as §2

| MIC, AB [1] | MIC, A. baumannii NMI 3658/17 [2] | MIC, PA [3] | MIC, P. aeruginosa NMI 7197/19 [4] | log Dmax [5] | HepG2 IC50 [7] | MIC against A. baumannii [1] | SMILES | viability at 48 h [6] |
| --- | --- | --- | --- | --- | --- | --- | --- | --- |
| 8 to 16 µg/mL | 16 µg/mL (≈ 6.97 µM) | 16 to 64 µg/mL | >64 µg/mL | < −3.147 | 332 µg/mL | – | NCCCC[C@H](NC(=O)CCN(Cc1ccc(F)cc1)C(=O)[C@H](CCCCN)NC(=O)CCN(Cc1ccc(F)cc1)C(=O)[C@H](CCCCN)NC(=O)COCCOCCN)C(=O)N(CCC(=O)NCCOCCOCC(=O)N[C@@H](CCCCN)C(=O)N(CCC(=O)N[C@@H](CCCCN)C(=O)N(CCC(=O)N[C@@H](CCCCN)C(=O)N(CCC(=O)NCCOCCOCC(N)=O)Cc1ccc(F)cc1)Cc1ccc(F)cc1)Cc1ccc(F)cc1)Cc1ccc(F)cc1 [Compound 12, H-sPEG2-[X]3-sPEG2-[X]3-sPEG2-NH2] | 34% |
| 8 to 16 µg/mL | 16 µg/mL (≈ 6.59 µM) | >64 µg/mL | >64 µg/mL | < −3.911 | – | – | NCCCC[C@H](NC(=O)CCN(Cc1ccc(F)cc1)C(=O)[C@H](CCCCN)NC(=O)CCN(Cc1ccc(F)cc1)C(=O)[C@H](CCCCN)NC(=O)COCCOCCOCCN)C(=O)N(CCC(=O)NCCOCCOCCOCC(=O)N[C@@H](CCCCN)C(=O)N(CCC(=O)N[C@@H](CCCCN)C(=O)N(CCC(=O)N[C@@H](CCCCN)C(=O)N(CCC(=O)NCCOCCOCCOCC(N)=O)Cc1ccc(F)cc1)Cc1ccc(F)cc1)Cc1ccc(F)cc1)Cc1ccc(F)cc1 [Compound 13, H-sPEG3-[X]3-sPEG3-[X]3-sPEG3-NH2] | – |
| 4 to 8 µg/mL | 8 µg/mL (≈ 3.7 µM) | 32 µg/mL (≈ 14.8 µM) | >64 µg/mL | < −2.876 | – | – | NCCCC[C@H](NC(=O)CCN(Cc1ccc(F)cc1)C(=O)[C@H](CCCCN)NC(=O)CCN(Cc1ccc(F)cc1)C(=O)[C@H](CCCCN)NC(=O)COCCN)C(=O)N(CCC(=O)NCCOCC(=O)N[C@@H](CCCCN)C(=O)N(CCC(=O)N[C@@H](CCCCN)C(=O)N(CCC(=O)N[C@@H](CCCCN)C(=O)N(CCC(=O)NCCOCC(N)=O)Cc1ccc(F)cc1)Cc1ccc(F)cc1)Cc1ccc(F)cc1)Cc1ccc(F)cc1 [Compound 11, H-sPEG1-[X]3-sPEG1-[X]3-sPEG1-NH2] | – |
| 4 µg/mL (≈ 1.82 µM) | 4 µg/mL (≈ 1.82 µM) | 16 µg/mL (≈ 7.28 µM) | >64 µg/mL | < −2.994 | 800 µg/mL | 1.3 µM (≈ 2.86 µg/mL) | NCCCC[C@H](NC(=O)CCN(Cc1ccc(F)cc1)C(=O)[C@H](CCCCN)NC(=O)CCN(Cc1ccc(F)cc1)C(=O)[C@H](CCCCN)NC(=O)CCOCCOCCOCCOCCOCCOCCNC(=O)CCN(Cc1ccc(F)cc1)C(=O)[C@H](CCCCN)NC(=O)CCN(Cc1ccc(F)cc1)C(=O)[C@H](CCCCN)NC(=O)CCN(Cc1ccc(F)cc1)C(=O)[C@@H](N)CCCCN)C(=O)N(CCC(N)=O)Cc1ccc(F)cc1 [Compound 10, H-[X]3-sPEG6-[X]3-NH2] | 27% |
| 16 µg/mL (≈ 6.15 µM) | 32 µg/mL (≈ 12.3 µM) | >64 µg/mL | >64 µg/mL | < −2.883 | 450 µg/mL | – | NCCCC[C@H](NC(=O)CCN(Cc1ccc(F)cc1)C(=O)[C@H](CCCCN)NC(=O)CCN(Cc1ccc(F)cc1)C(=O)[C@H](CCCCN)NC(=O)CCOCCOCCOCCOCCN)C(=O)N(CCC(=O)NCCOCCOCCOCCOCCC(=O)N[C@@H](CCCCN)C(=O)N(CCC(=O)N[C@@H](CCCCN)C(=O)N(CCC(=O)N[C@@H](CCCCN)C(=O)N(CCC(=O)NCCOCCOCCOCCOCCC(N)=O)Cc1ccc(F)cc1)Cc1ccc(F)cc1)Cc1ccc(F)cc1)Cc1ccc(F)cc1 [Compound 14, H-sPEG4-[X]3-sPEG4-[X]3-sPEG4-NH2] | 44% |

Further lines, the compound ahead of its results:

| SMILES | MIC, AB [1] | MIC, A. baumannii NMI 3658/17 [2] | MIC, PA [3] | MIC, P. aeruginosa NMI 7197/19 [4] | log Dmax [5] | HepG2 IC50 [7] | MIC against A. baumannii [1] | viability at 48 h [6] |
| --- | --- | --- | --- | --- | --- | --- | --- | --- |
| NCCCC[C@H](NC(=O)CCN(Cc1ccc(F)cc1)C(=O)[C@H](CCCCN)NC(=O)CCN(Cc1ccc(F)cc1)C(=O)[C@H](CCCCN)NC(=O)CCN(Cc1ccc(F)cc1)C(=O)[C@H](CCCCN)NC(=O)CCN(Cc1ccc(F)cc1)C(=O)[C@H](CCCCN)NC(=O)CCN(Cc1ccc(F)cc1)C(=O)[C@@H](N)CCCCN)C(=O)N(CCC(N)=O)Cc1ccc(F)cc1 [Compound 1, H-[Lys-βNPhe(4-F)]6-NH2] | 8 to 16 µg/mL | 4 µg/mL (≈ 2.15 µM) | 32 to 64 µg/mL | >64 µg/mL | < −2.662 | 464 µg/mL | – | 0% |
| NCCCC[C@H](NC(=O)CCN(Cc1ccc(F)cc1)C(=O)[C@H](CCCCN)NC(=O)COCCNC(=O)CCN(Cc1ccc(F)cc1)C(=O)[C@H](CCCCN)NC(=O)CCN(Cc1ccc(F)cc1)C(=O)[C@H](CCCCN)NC(=O)COCCNC(=O)CCN(Cc1ccc(F)cc1)C(=O)[C@H](CCCCN)NC(=O)CCN(Cc1ccc(F)cc1)C(=O)[C@@H](N)CCCCN)C(=O)N(CCC(N)=O)Cc1ccc(F)cc1 [Compound 15, H-[X]2-sPEG1-[X]2-sPEG1-[X]2-NH2] | 8 µg/mL (≈ 3.88 µM) | 4 µg/mL (≈ 1.94 µM) | 32 to 64 µg/mL | >64 µg/mL | < −3.180 | 568 µg/mL | – | 26% |
| NCCCC[C@H](NC(=O)CCN(Cc1ccc(F)cc1)C(=O)[C@H](CCCCN)NC(=O)CCN(Cc1ccc(F)cc1)C(=O)[C@H](CCCCN)NC(=O)CCOCCOCCOCCOCCNC(=O)CCN(Cc1ccc(F)cc1)C(=O)[C@H](CCCCN)NC(=O)CCN(Cc1ccc(F)cc1)C(=O)[C@H](CCCCN)NC(=O)CCN(Cc1ccc(F)cc1)C(=O)[C@@H](N)CCCCN)C(=O)N(CCC(N)=O)Cc1ccc(F)cc1 [Compound 9, H-[X]3-sPEG4-[X]3-NH2] | 4 to 8 µg/mL | 4 to 8 µg/mL | 32 µg/mL (≈ 15.2 µM) | >64 µg/mL | < −3.627 | 693 µg/mL | – | 9% |
| NCCCC[C@H](NC(=O)CCN(Cc1ccc(F)cc1)C(=O)[C@H](CCCCN)NC(=O)COCCOCCNC(=O)CCN(Cc1ccc(F)cc1)C(=O)[C@H](CCCCN)NC(=O)CCN(Cc1ccc(F)cc1)C(=O)[C@H](CCCCN)NC(=O)COCCOCCNC(=O)CCN(Cc1ccc(F)cc1)C(=O)[C@H](CCCCN)NC(=O)CCN(Cc1ccc(F)cc1)C(=O)[C@@H](N)CCCCN)C(=O)N(CCC(N)=O)Cc1ccc(F)cc1 [Compound 16, H-[X]2-sPEG2-[X]2-sPEG2-[X]2-NH2] | 8 µg/mL (≈ 3.72 µM) | 4 µg/mL (≈ 1.86 µM) | 32 to 64 µg/mL | >64 µg/mL | < −3.922 | 687 µg/mL | – | 27% |

Reference: paper PMC8268887, “Peptide/β-Peptoid Hybrids with Ultrashort PEG-Like Moieties: Effects on Hydrophobicity, Antibacterial Activity and Hemolytic Properties” (International Journal of Molecular Sciences, 2021)
